Experimental data taken from publication PMC7249006, “Discovery of Novel Pyridazine-Based Cyclooxygenase-2 Inhibitors with a Promising Gastric Safety Profile” (Molecules, 2020).
“Also recorded” adds a separate entry of the source.

Legend:
human COX-2 = molecular target: T1, human COX-2 (Homo sapiens, UniProt P35354); experiment: In vitro COX-2 inhibition assay (Cayman kit 560131, ELISA); format: biochemical; settings: for SI (Selectivity index): IC50 for COX-1/IC50 for COX-2; for IC50: N = 3, Mean ± SD; for %SI: selectivity index normalized to celecoxib = 100%
T1 construct: purchased Cayman Chemicals 560131
T1 sequence (P35354 18-604): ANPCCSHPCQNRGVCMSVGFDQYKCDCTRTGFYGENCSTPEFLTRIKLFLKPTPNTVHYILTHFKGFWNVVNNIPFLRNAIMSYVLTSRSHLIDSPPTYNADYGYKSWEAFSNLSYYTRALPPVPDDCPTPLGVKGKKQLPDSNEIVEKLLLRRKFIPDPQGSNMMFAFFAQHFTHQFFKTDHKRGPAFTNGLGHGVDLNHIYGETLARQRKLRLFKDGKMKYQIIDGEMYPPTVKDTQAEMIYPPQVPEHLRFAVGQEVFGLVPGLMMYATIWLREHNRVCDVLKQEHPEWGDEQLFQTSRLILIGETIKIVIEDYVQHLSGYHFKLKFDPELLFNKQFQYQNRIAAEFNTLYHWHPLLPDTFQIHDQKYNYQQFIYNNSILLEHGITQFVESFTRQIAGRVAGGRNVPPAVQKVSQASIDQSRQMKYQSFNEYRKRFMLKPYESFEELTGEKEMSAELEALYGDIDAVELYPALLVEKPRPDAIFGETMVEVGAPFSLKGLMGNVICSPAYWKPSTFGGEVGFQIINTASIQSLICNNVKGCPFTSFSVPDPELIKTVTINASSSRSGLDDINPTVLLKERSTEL
Experimental: (§1) The supplier’s instructions were followed to prepare the reagents as well as to perform the experiment. Briefly, samples (20 μL), the COX-1 and COX-2 enzyme (10 μL), and heme (10 μL) were mixed with the buffer solution (160 μL), which was supplied with the kits. […] A saturated solution of stannous chloride (30 μL) was added after 2 min to halt the COX reaction. The resultant mixture was incubated at ambient temperature for 5 min. The Prostaglandin-2α (PGF2α) developed after the COX reaction was measured through ELISA. […] The plate was washed to get rid of the unbound components. […] The IC50 values of COX-1 and COX-2 were determined by the regression analysis.

[1] = molecular target: T2, (Ovis aries, UniProt P05979); experiment: In vitro COX-1 inhibition assay (Cayman kit 560131, ELISA); format: biochemical, human; settings: N = 3, Mean ± SD
T2 construct: purchased Cayman Chemicals 560131
T2 sequence (P05979 25-600): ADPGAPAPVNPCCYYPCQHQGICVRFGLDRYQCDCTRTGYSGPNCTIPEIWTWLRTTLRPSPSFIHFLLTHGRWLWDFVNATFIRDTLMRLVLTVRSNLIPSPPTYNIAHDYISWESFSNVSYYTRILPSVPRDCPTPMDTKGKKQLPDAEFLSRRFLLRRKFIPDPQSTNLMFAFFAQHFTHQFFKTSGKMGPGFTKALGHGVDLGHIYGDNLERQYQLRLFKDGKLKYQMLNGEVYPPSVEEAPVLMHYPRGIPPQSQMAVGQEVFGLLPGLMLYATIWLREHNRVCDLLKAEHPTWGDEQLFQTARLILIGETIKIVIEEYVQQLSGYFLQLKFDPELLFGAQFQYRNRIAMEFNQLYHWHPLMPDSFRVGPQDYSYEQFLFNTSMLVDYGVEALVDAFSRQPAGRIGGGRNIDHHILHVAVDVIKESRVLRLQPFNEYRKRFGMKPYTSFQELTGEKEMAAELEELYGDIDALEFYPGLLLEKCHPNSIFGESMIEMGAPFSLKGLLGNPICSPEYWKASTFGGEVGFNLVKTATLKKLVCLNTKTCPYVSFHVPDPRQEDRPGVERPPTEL
Experimental: as §1

gastric mucosa = experiment: Lipid peroxidation studies (MDA content of gastric mucosa, TBA method); settings: gastric mucosa after the ulcerogenic activity test, 10 mg/kg orally
Experimental: A decrease in the MDA content is a measure to assess the non-ulcerogenic effect of a compound.
The obtained mixture was extracted with a 5-mL mixture (15:1 v/v) of n-butanol and pyridine and centrifuged at 4000 rpm for 10 min. […] A standard linear curve (absorbance vs. concentration in nM) was prepared using MDA tetrabutylammonium salt. The lipid peroxidation was calculated from the standard curve. The results are expressed as nmol MDA 100 mg^−1 tissues.

gastric ulcers in rats = experiment: Gastric ulcerogenic activity; settings: 10 mg/kg orally; for ulcerogenic effect (in words): rats; for Score: No of Gastric Ulcers / Score: Severity Lesions: rats fasted 18 h, sacrificed after 4 h, Mean ± SE
Experimental: A total of eight groups of rats were utilized, wherein each group comprised of six rats.
The eight groups of rats were fasted for 18 h, wherein each group consisted of 6 rats. […] Saline solution (1 mL) was given to the control group. The animals were sacrificed after 4 h to isolate their stomachs. A longitudinal cut was made along the greater curvature, and the presence of ulcers was evaluated. The counting of ulcers was marked as 0 (no ulcer) to 5 (≥ 3 ulcers) [30].

Compound	SI (Selectivity index) (human COX-2)	IC50 (human COX-2) [nM]	%SI (human COX-2) [%]	IC50 [1] [nM]	melting point [°C]	MDA Content in nmol (100 mg Tissue) (gastric mucosa)	ulcerogenic effect (in words) (gastric ulcers in rats)	Score: No of Gastric Ulcers (gastric ulcers in rats)	Score: Severity Lesions (gastric ulcers in rats)
CCOC(=O)c1sc(N/N=C/c2ccc(-n3nc(-c4ccccc4)ccc3=O)cc2)nc1C [Compound 8, Ethyl 4-methyl-2-(2-(4-(6-oxo-3-phenylpyridazin-1(6H)-yl)benzylidene)hydrazineyl) thiazole-5-carboxylate]	10.33	24.18 ± 0.14	57.45	250 ± 0.12	245 to 246	–	–	–	–
O=C1CSC(NN=Cc2ccc(-n3nc(-c4ccccc4)ccc3=O)cc2)=N1 [Compound 6a, 2-(2-(4-(6-Oxo-3-phenylpyridazin-1(6H)-yl)benzylidene)hydrazineyl)thiazol-4(5H)-one]	10.35	25.1 ± 0.15	57.56	260 ± 0.22	250 to 252	–	–	–	–
COc1ccc(/C=C2\SC(N/N=C/c3ccc(-n4nc(-c5ccccc5)ccc4=O)cc3)=NC2=O)cc1 [Compound 16b, 5-(4-Methoxybenzylidene)-2-(2-(4-(6-oxo-3-phenylpyridazin-1(6H)-yl)benzylidene)hydra-zineyl)thiazol-4(5H)-one]	–	16.9 ± 0.16	–	315 ± 0.33	> 300	3.45 ± 0.28 nmol (100 mg Tissue)	insignificant ulcerogenic effects	0.12 ± 0.30	0.18 ± 0.22
Cc1ccc(-c2cc(C(F)(F)F)nn2-c2ccc(S(N)(=O)=O)cc2)cc1 [Celecoxib, celecoxib, reference compound]	–	–	–	–	–	6.11 ± 0.50 nmol (100 mg Tissue)	–	–	–
NN=Cc1ccc(-n2nc(-c3ccccc3)ccc2=O)cc1 [Compound 4a, 2-(4-(Hydrazineylidenemethyl)phenyl)-6-phenylpyridazin-3(2H)-one]	8.97	26.2 ± 0.5	49.88	235 ± 0.11	235 to 236	–	–	–	–
O=c1ccc(-c2ccccc2)nn1-c1ccc(C=NNc2nc(-c3ccc(Br)cc3)cs2)cc1 [Compound 9b, 2-(4-((2-(4-(4-Bromophenyl)thiazol-2-yl)hydrazineylidene)methyl)phenyl)-6-phenylpyridazin-3(2H)-one]	–	17.5 ± 0.6	–	275 ± 0.42	261 to 262	3.89 ± 0.50 nmol (100 mg Tissue)	insignificant ulcerogenic effects	0.33 ± 0.38	0.26 ± 0.16
O=C1N=C(N/N=C/c2ccc(-n3nc(-c4ccccc4)ccc3=O)cc2)S/C1=C\c1ccc(Cl)cc1 [Compound 16a, 5-(4-Chlorobenzylidene)-2-(2-(4-(6-oxo-3-phenylpyridazin-1(6H)-yl)benzylidene)-hydra-zinyl)thiazol-4(5H)-one]	12.40	22.2 ± 0.44	68.96	275 ± 0.1	297 to 298	–	–	–	–
CC1SC(NN=Cc2ccc(-n3nc(-c4ccccc4)ccc3=O)cc2)=NC1=O (stereo not drawn) [Compound 6b, 5-Methyl-2-(2-(4-(6-oxo-3-phenylpyridazin-1(6H)-yl)benzylidene)hydrazineyl)thiazol-4(5H)-one]	12.30	22.75 ± 0.1	68.40	280 ± 0.5	285 to 286	–	–	–	–
O=C1CSC(=NN=Cc2ccc(-n3nc(-c4ccccc4)ccc3=O)cc2)N1c1ccccc1 [Compound 17, 2-((4-(6-oxo-3-phenylpyridazin-1(6H)-yl)benzylidene)hydrazineylidene)-3-phenyl thiazolidin-4-one]	–	17.7 ± 0.18	–	285 ± 0.16	–	4.11 ± 0.18 nmol (100 mg Tissue)	insignificant ulcerogenic effects	0.42 ± 0.10	0.20 ± 0.50
COc1ccc2c(c1)c(CC(=O)O)c(C)n2C(=O)c1ccc(Cl)cc1 [Indomethacin, indomethacin, reference compound]	–	–	–	–	–	8.90 ± 0.18 nmol (100 mg Tissue)	–	–	–
CN(C)C=C1SC(NN=Cc2ccc(-n3nc(-c4ccccc4)ccc3=O)cc2)=NC1=O [Compound 11, 5-((dimethylamino)methylene)-2-(2-(4-(6-oxo-3-phenylpyridazin-1(6H)-yl)benzylidene) hydrazineyl) thiazol-4(5H)-one]	10.75	25.11 ± 0.11	59.78	270 ± 0.24	–	–	–	–	–
COC(=O)C=C1SC(=NN=Cc2ccc(-n3nc(-c4ccccc4)ccc3=O)cc2)NC1=O [Compound 10, Methyl2-(4-oxo-2-((4-(6-oxo-3-phenylpyridazin-1(6H)-yl)benzylidene)hydrazineylidene) -thiazolidin-5-ylidene)acetate]	12.89	22.1 ± 0.55	71.69	285 ± 0.15	–	–	–	–	–
O=C1N=C(NN=Cc2ccc(-n3nc(-c4ccccc4)ccc3=O)cc2)SC1=C1C(=O)Nc2ccccc21 [Compound 12, 2-(2-(4-(6-oxo-3-phenylpyridazin-1(6H)-yl)benzylidene)hydrazineyl)-5-(2-oxoindolin-3-ylidene) thiazol-4(5H)-one]	–	17.1 ± 0.19	–	295 ± 0.28	–	2.95 ± 0.44 nmol (100 mg Tissue)	No ulcerogenic effects; also recorded: did not produce any ulcerogenic impact; also recorded: devoid of any ulcerogenic effect	0	0
COC(=O)C=C1SC(=NN=Cc2ccc(-n3nc(-c4ccccc4)ccc3=O)cc2)N(c2ccccc2)C1=O [Compound 18, Methyl2-(4-oxo-2-((4-(6-oxo-3-phenylpyridazin-1(6H)-yl)benzylidene)hydrazinylidene) -3-phenylthiazolidin-5-ylidene)acetate]	11.01	23.1 ± 0.5	61.23	255 ± 0.2	–	–	–	–	–
O=c1ccc(-c2ccccc2)nn1-c1ccc(C=NNc2nc(-c3ccccc3)cs2)cc1 [Compound 9a, 6-Phenyl-2-(4-((2-(4-phenylthiazol-2-yl)hydrazinylidene)methyl)phenyl)pyridazin-3(2H)-one]	–	15.5 ± 0.55	–	330 ± 0.28	280 to 281	3.05 ± 0.12 nmol (100 mg Tissue)	No ulcerogenic effects; also recorded: did not produce any ulcerogenic impact; also recorded: devoid of any ulcerogenic effect	0	0
